{
  "source": "patent US20260209175A1",
  "about": "“PHARMACEUTICALLY ACCEPTABLE 5-METHOXY-N,N-DIMETHYL[…] AND COMPOSITIONS THEREOF” (priority 2022, published 2026)",
  "key": {"[1]": {"assay": "Dissolution rate in simulated nasal fluid (UV-fiber optic dissolution apparatus)", "assay_type": "physicochemical", "details": "5 mg in 5 mL simulated nasal fluid, 37° C., 150 RPM", "experimental": "The dissolution rate was determined using a method comprising the use of a UV-fiber optic-based dissolution apparatus (one such suitable device is the Rainbow® Dynamic Dissolution Monitor by Pion Inc) and simulated nasal fluid. The simulated nasal fluid comprises 7.45 g/L NaCl, 1.29 g/L KCl, 0.32 g/L CaCl2×2H2O and deionised water.\nThe dissolution apparatus was set up with a 2 mm probe to measure the dissolution rate. 5 mg of the salt form was transferred into 5 mL of simulated nasal fluid, heated to a constant temperature of 37° C. and stirred at 150 RPM using a crossed stirrer bar. Measurements were taken at 3 s intervals for 130 intervals followed by 60 measurements taken at 10 s intervals for a total time of 16 minutes and 30 s. Detection of dissolution is by UV absorbance."}, "[2]": {"assay": "Solubility assessments in four different media", "assay_type": "physicochemical", "details": "for pH after addition of 1 ml media at 37° C. / Observation / pH after addition of 1.5 ml media at 37° C.: 250 mg per vial; for solubility relative to other salts: comparison of the salt forms", "experimental": "Solubility assessments of 5-MeO-DMT oxalate, hydrobromide fumarate and benzoate were performed in four different media: […]"}, "[3]": {"assay": "Thermo-Gravimetric Analysis (TGA), thermal stability", "assay_type": "physicochemical", "details": "10° C./min ramp; for thermally stable up to (TGA): nitrogen", "procedure": "TGA thermograms were obtained with a TA Instrument Discovery 550 in Al pans. The heating rate used was 10° C./min linear ramp from 25 to 400° C. with a nitrogen purging at a rate of 60 ml/min. TGA thermograms were analysed using TRIOS software."}, "[4]": {"assay": "Dynamic Vapor Sorption (DVS) analysis of salts, with XRPD of the post-DVS sample", "assay_type": "physicochemical", "experimental": "XRPD diffractograms were acquired using Bruker D2 Phaser diffractometer equipped with LYNXEYE detector. Samples were prepared using a zero-background sample holder. The samples were scanned from 5 to 32° (2θ) using a step size of 0.02° and a time per step of 0.13 second whilst spinning the sample. Diffractograms were plotted using the EVA program from Bruker.\nDVS analyses were performed on TA Instrument DVS Q5000. Samples were added to a pre-tared metallised quartz crucible and run at 25° C. from 40% RH to 90% RH, down to zero and back to 40%. This cycle was repeated in increments of 10% RH."}, "[5]": {"assay_type": "physicochemical", "details": "40° C./75% RH, three days", "experimental": "Salt screening studies with 24 selected counter-ions were performed to determine if 5-MeO-DMT free base is amenable to salt formation. […] Salts were examined by XRPD, TGA, DSC, 1H NMR and some by DVS analyses. Short term physical stability was examined by storage of salts at 40° C./75% RH for three days.\nPhysical stability stress tests were conducted on generated crystalline salts at controlled temperature and relative humidity. The powder samples were stored at 40° C./75% RH for three days. After this time samples were analysed by XRPD to see whether the physical state of salts changed during the storage."}, "[6]": {"assay": "Oxalate salt solubility by HPLC", "assay_type": "physicochemical", "details": "pH 1.2 medium, simulated gastric fluid, thermodynamic from solid, mother liquors adjusted to the desired pH, read-out: Solubility (mg/mL) of free base", "experimental": "The benzoate salt has a solubility of, at least, 100 mg/ml. The calibration curve of the free base was prepared between 0.031-0.500 mg/ml and can be seen in FIG. 172.\nMother liquors were adjusted to the desired pH before HPLC quantification."}, "[7]": {"details": "salt screen / scale-up batches, DVS at 25° C"}},
  "note": "Where a name gives a salt, the structure may show the parent alone. Read-outs that look alike come from different tables or passages of the source.",
  "data": [
    {"smiles": "Br.COc1ccc2[nH]cc(CCN(C)C)c2c1", "note": "[Hydrobromide salt, 5-MeO-DMT hydrobromide]", "values": [
      {"measurement": "dissolution rate", "setting": "[1]", "result": "almost instantaneous"},
      {"measurement": "pH after addition of 1 ml media at 37° C.", "setting": "[2]; SNF", "result": 8.13},
      {"measurement": "Observation", "setting": "[2]; SNF, 1 ml media at 37° C.", "result": "Clear solution"},
      {"measurement": "solubility relative to other salts", "setting": "[2]", "result": "high solubility"},
      {"measurement": "pH after addition of 1 ml media at 37° C.", "setting": "[2]; pH 1.2 buffer", "result": 8.09},
      {"measurement": "Observation", "setting": "[2]; pH 1.2 buffer, 1 ml media at 37° C.", "result": "Clear solution"},
      {"measurement": "pH after addition of 1 ml media at 37° C.", "setting": "[2]; pH 4.5 buffer", "result": 7.65},
      {"measurement": "Observation", "setting": "[2]; pH 4.5 buffer, 1 ml media at 37° C.", "result": "Clear solution"},
      {"measurement": "pH after addition of 1 ml media at 37° C.", "setting": "[2]; pH 6.8 buffer", "result": 7.82},
      {"measurement": "Observation", "setting": "[2]; pH 6.8 buffer, 1 ml media at 37° C.", "result": "Clear solution"},
      {"measurement": "thermally stable up to (TGA)", "setting": "[3]", "result": 220, "unit": "°C"},
      {"measurement": "solid form after DVS (XRPD post DVS)", "setting": "[4]; salt produced during scale-up", "result": "no change in crystalline form"},
      {"measurement": "hygroscopicity classification", "setting": "[4]; [7]", "result": "non-hygroscopic"},
      {"measurement": "crystalline form by XRPD after storage", "setting": "[5]", "result": "No change in crystalline form"}
    ]},
    {"smiles": "COc1ccc2[nH]cc(CCN(C)C)c2c1", "note": "[Oxalate salt, 5-MeO-DMT oxalate]", "values": [
      {"measurement": "dissolution rate", "setting": "[1]", "result": "prolonged"},
      {"measurement": "pH after addition of 1.5 ml media at 37° C.", "setting": "[2]; SNF", "result": 2.13},
      {"measurement": "Observation", "setting": "[2]; SNF, 1.5 ml media at 37° C.", "result": "Suspension"},
      {"measurement": "solubility relative to other salts", "setting": "[2]", "result": "lowest solubility"},
      {"measurement": "pH after addition of 1.5 ml media at 37° C.", "setting": "[2]; pH 1.2 buffer", "result": 1.87},
      {"measurement": "Observation", "setting": "[2]; pH 1.2 buffer, 1.5 ml media at 37° C.", "result": "Suspension"},
      {"measurement": "pH after addition of 1.5 ml media at 37° C.", "setting": "[2]; pH 4.5 buffer", "result": 3.05},
      {"measurement": "Observation", "setting": "[2]; pH 4.5 buffer, 1.5 ml media at 37° C.", "result": "Suspension"},
      {"measurement": "pH after addition of 1.5 ml media at 37° C.", "setting": "[2]; pH 6.8 buffer", "result": 3.45},
      {"measurement": "Observation", "setting": "[2]; pH 6.8 buffer, 1.5 ml media at 37° C.", "result": "Suspension"},
      {"measurement": "solid form after DVS (XRPD post DVS)", "setting": "[4]", "result": "no change in the crystalline form"},
      {"measurement": "solubility", "setting": "[6]", "result": 19, "unit": "mg/mL"}
    ]},
    {"smiles": "COc1ccc2[nH]cc(CCN(C)C)c2c1", "note": "[Tartrate salt, 5-MeO-DMT tartrate]", "values": [
      {"measurement": "onset of decomposition / mass loss (TGA)", "setting": "[3]", "result": 175, "unit": "°C"},
      {"measurement": "thermally stable up to (TGA)", "setting": "[3]", "result": "around 170 °C"},
      {"measurement": "total water (moisture) uptake between 0% RH and 90% RH", "setting": "[4]; 25° C", "result": "approximately 3.3 % w/w"},
      {"measurement": "sorption/desorption behaviour (reversibility, hysteresis)", "setting": "[4]; DVS isotherm, 25° C", "result": "reversible and overlap"},
      {"measurement": "solid form after double-cycle DVS experiment (XRPD)", "setting": "[4]; Example 3 Pattern 1 batches", "result": "unchanged"},
      {"measurement": "total reversible mass change between 0-90% RH", "setting": "[4]; Example 3 Pattern 1 batches", "result": 0.6, "unit": "wt. %"},
      {"measurement": "hygroscopicity classification", "setting": "[4]; Example 3 Pattern 1 batches, 0-90% RH", "result": "slightly hygroscopic (Pharmaceuticals that pick up between 0.2% and 2.0% moisture at 80% RH are considered slightly hygroscopic)"},
      {"measurement": "hygroscopicity classification", "setting": "[4]; [7]", "result": "moderately hygroscopic (Pharmaceuticals that pick up between 2.0% and 15.0% moisture at 80% RH are considered moderately hygroscopic)"},
      {"measurement": "hygroscopicity classification", "setting": "[4]; salt screen / scale-up batches, DVS at 25° C, listed as tartrate salt", "result": "moderately hygroscopic (Pharmaceuticals that pick up between 2.0% and 15.0% moisture at 80% RH are considered moderately hygroscopic)"},
      {"measurement": "solid form after DVS (XRPD post DVS)", "setting": "[4]; salt screen batches", "result": "did not undergo any solid form transformation"},
      {"measurement": "crystalline form by XRPD after storage", "setting": "[5]", "result": "No change in the crystalline form"}
    ]}
  ]
}
